Assay results from US8859544B2, “Indolizine derivatives, process for the preparation thereof and therapeutic use thereof” (Sanofi, priority 2010, dated 2014).
Where “and” joins values, the source holds several entries; their conditions need not be identical. Equal values may be shown once.

Experiments:
[1] = test system: inflammatory angiogenesis in mice; assay: Model of inflammatory angiogenesis in mice; type: in vivo; conditions: for % inhibition of the angiogenic parameter (dye content) / % inhibition of the inflammatory parameter (mass of the granuloma): mice, daily oral treatment
Procedure: The model is developed on OF1 female mice (Charles River Laboratories) weighing approximately 25 g, and by groups of 12. The animals are anaesthetized with sodium pentobarbital (60 mg/kg; Sanofi Nutrition Santé animale)) intraperitoneally. An air pocket is created on the back of the mouse by subcutaneous injection of 3 ml of air. […] Seven days later, the mice are again anaesthetized and placed on a hot plate at 40° C. One ml of carmine red (Aldrich Chemicals, 5% in 10% of gelatin) is injected into the tail vein. The animals are then placed at 4° C. for 2-3 hours. The skins are then taken and dried for 24 h in an oven at 56° C. The dry tissues are weighed and placed in 1.8 ml of digestion solution (2 mM dithiothreitol, 20 mM Na2HPO4, 1 mM EDTA, 12 U/ml papain) for 24 h. The dye is then dissolved in 0.2 ml of 5M NaOH. The skins are centrifuged at 2000 rpm for 10 min at ambient temperature. The supernatants are filtered through 0.2 μm cellulose acetate membranes. The filtrates are read in a spectrophotometer at 492 nm against a carmine red calibration range. Two parameters are studied: the dry weight of the granuloma and the amount of dye after digestion of the tissues. The results are expressed as mean values (±sem). The differences between the groups are tested with an ANOVA followed by a Dunnett's test, of which the reference group is the “solvent control” group.
The FGF-R antagonists are evaluated between 1 and 50 mg/kg using methylcellulose/tween (0.6% v/v) as vehicle or any other vehicle which allows the active ingredient to be solubilized. The molecules are administered daily, orally (one or two times a day) by gavage.

[2] = test system: HUVEC cells stimulated with FGF-2; assay: FGF-2-induced in vitro angiogenesis of HUVEC cells; type: cell-based, human; conditions: as a percentage of the control
Procedure: To do this, matrices composed of matrigel (growth factor reduced matrigel, Becton Dickinson 356230) and collagen (rat tail collagen type I, Becton Dickinson 354236) are deposited, at a rate of 160 μl, into each chamberslide well (Biocoat Cellware collagen, Type I, 8-well culturesides: Becton Dickinson 354630), or 60 μl per well of 96-well plates (Biocoat collagen I cellware, Becton Dickinson 354407). The matrix is prepared by mixing ⅓ of matrigel, 1 mg/ml final concentration of collagen, NaOH (0.1N) (0.026× the volume of collagen in μl) and 1×PBS, and the volume is then adjusted with water. The gels are kept at 37° C. for 1 hour so as to allow them to polymerize. Next, the human vein endothelial cells (HUVECs ref: C-12200-Promocell) were seeded at 15×10^3 or 6×10^3 cells/well in 400 or 120 μl (for the 8-well or 96-well plates respectively) of EBM medium (Clonetics C3121)+2% FBS+10 μg/ml hEGF. They were stimulated with 1 or 3 ng/ml of FGF-2 (R&D systems, 133-FB-025; Invitrogen, PHG0026) for 24 h at 37° C. in the presence of 5% CO2. After 24 hours, the length of the network of microtubules formed was measured using a computer-assisted image analysis system (Imagenia Biocom, Courtaboeuf, France) and the total length of the pseudotubules in each well was determined. The average total length of the microcapillary network was calculated in μm for each condition corresponding to the average of 6 replicates.
Stimulation with FGF2 makes it possible to induce the formation of new tubules. An FGF-R antagonist is considered to be active in this test as long as it is capable of partially inhibiting this angiogenesis at a dose less than or equal to 300 nM.

[3] = test system: HUVEC cells stimulated with FGF-2; assay: FGF-2-induced in vitro proliferation of HUVEC cells; type: cell-based, human; conditions: inhibition of proliferation as percentage of the control
Procedure: To do this, HUVEC human vein endothelial cells (promocell, C-12200) are seeded at a rate of 5000 cells per well of a 96-well plate (Biocoat collagen I cellware, Becton Dickinson 354650) in 100 μl of RPMI 1640 deprivation medium (Invitrogen, 31872-025) supplemented with 0.5% or 1% FCS, 2 mM glutamine, 1× sodium pyruvate (Invitrogen, 11360-039) and 1×NEAA (Invitrogen, 11140-035), overnight at 37° C. in the presence of 5% CO2. The following morning, the medium is suctioned-off and replaced with 50 μl of deprivation medium containing the antagonists at a 2× concentration, to which are added 50 μl of FGF-2 (R&D systems, 133-FB-025; Invitrogen, PHG0026) at 0.2 ng/ml (i.e. 2×). After 48 or 72 h, 100 μl of Cell Titer-GLOW Luminescent Cell Viability Assay (Promega, G7571) are added for 10 min in order to measure, by means of a luminometer, the amount of ATP present in the cells and which is in relation to the number of cells per well corresponding to the cell proliferation.
The antagonists of the present invention are considered to be active as long as they are capable of inhibiting FGF-2-induced proliferation of HUVEC cells at a dose less than or equal to 300 nM.

Q: For `COc1c(C)c(C(=O)c2ccc3nc(C)[nH]c(=O)c3c2)n2ccccc12` [Compound No. 15, 6-[(1-Methoxy-2-methylindolizin-3-yl)carbonyl]-2-methylquinazolin-4(3H)-one], which “% inhibition of the angiogenic parameter (dye content)” value (“% inhibition … (dye content)” below) ([1]; 30 mg/kg) is on record?
A: 21%

Q: And the “% inhibition of the inflammatory parameter (mass of the granuloma)” value (“% inhibition … (mass of the granuloma)” below) ([1]; 30 mg/kg)?
A: 21%

Q: And the melting point?
A: 290 °C and 287 °C

Q: Which melting point does the source give for `CCOC(=O)COn1c(=O)[nH]c2ccc(C(=O)c3c(C)c(OC)c4ccccn34)cc2c1=O` [Compound No. 34, Ethyl({6-[(1-methoxy-2-methylindolizin-3-yl)carbonyl]-2,4-dioxo-1,4-dihydroquinazolin-3(2H)-yl}oxy)acetate] here?
A: 230 °C

Q: With `COc1c(C)c(C(=O)c2ccc3[nH]c(=O)n(CC(=O)N(C)C)c(=O)c3c2)n2ccccc12` [Compound No. 35, 2-{6-[(1-Methoxy-2-methylindolizin-3-yl)carbonyl]-2,4-dioxo-1,4-dihydroquinazolin-3(2H)-yl}-N,N′-dimethylacetamide] as the compound, how does the “% inhibition … (dye content)” value ([1]; 30 mg/kg) read?
A: 36%

Q: What about the “% inhibition … (mass of the granuloma)” value ([1]; 30 mg/kg) of the same compound?
A: 36%

Q: What about the “dye content corresponding to the angiogenesis” value ([1]; 10 or 30 mg/kg, after one week of daily treatment) of the same compound?
A: significantly reduce

Q: With `COc1c(C)c(C(=O)c2ccc3[nH]c(=O)n(Cc4nc(C)no4)c(=O)c3c2)n2ccccc12` [Compound No. 36, 6-[(1-Methoxy-2-methylindolizin-3-yl)carbonyl]-3-[(3-methyl-1,2,4-oxadiazol-5-yl)methyl]quinazoline-2,4(1H,3H)-dione] as the compound, how does the melting point read?
A: 176 °C

Q: For `CCCn1c(=O)[nH]c2ccc(C(=O)c3c(C)c(OCCOC)c4ccccn34)cc2c1=O` [Compound No. 48, 6-{[1(2-Methoxyethoxy)-2-methylindolizin-3-yl]carbonyl}-3-propylquinazoline-2,4(1H,3H)-dione], which melting point is on record?
A: 215 °C

Q: With `COc1c(C)c(C(=O)c2ccc3[nH]c(=O)n(N)c(=O)c3c2)n2ccccc12` [Compound No. 51, 3-Amino-6-[(1-methoxy-2-methylindolizin-3yl)carbonyl]quinazoline-2,4(1H,3H)-dione] as the compound, how does the melting point read?
A: 220 °C

Q: For `COc1c(C)c(C(=O)c2ccc3c(c2)c(=O)c(C(=O)[O-])cn3C)n2ccccc12.[Na+]` [Compound No. 62, Sodium salt of 6-[(1-methoxy-2-methylindolizin-3-yl)carbonyl]-1-methyl-4-oxo-1,4-dihydroquinoline-3-carboxylic acid], which “% inhibition … (dye content)” value ([1]; 10 mg/kg) is on record?
A: 43%

Q: And the “% inhibition … (mass of the granuloma)” value ([1]; 10 mg/kg)?
A: 38%

Q: With `COc1c(C)c(C(=O)c2ccc3c(c2)c(=O)n(CC(=O)N(C)C)c(=O)n3C)n2ccccc12` [Compound No. 68, 2-{6-[(1-Methoxy-2-methylindolizin-3-yl)carbonyl]-1-methyl-2,4-dioxo-1,4-dihydroquinazolin-3(2H)-yl}-N,N-dimethylacetamide] as the compound, how does the melting point read?
A: 276 °C

Q: Which inhibition at 0.003 µM ([2]; Homo sapiens, 3 nM) does the source give for `CNC(=O)c1c[nH]c2ccc(C(=O)c3c(C)c(OC)c4ccccn34)cc2c1=O` [Compound No. 96, 6-[(1-Methoxy-2-methylindolizin-3-yl)carbonyl]-N-methyl-4-oxo-1,4-dihydroquinoline-3-carboxamide] here?
A: 123%

Q: What about the inhibition at 0.03 µM ([2]; Homo sapiens, 30 nM) of the same compound?
A: 129%

Q: What about the inhibition at 0.03 µM ([3]; Homo sapiens, 30 nM, read-out: Percentage inhibition of angiogenesis (%)) of the same compound?
A: 123%

Q: What about the inhibition at 0.3 µM ([3]; Homo sapiens, 300 nM, read-out: Percentage inhibition of angiogenesis (%)) of the same compound?
A: 129%

Q: And the melting point?
A: 324 °C

Q: Which results are given for `CNC(=O)c1cn(C)c2ccc(C(=O)c3c(C)cc4ccccn34)cc2c1=O` [Compound No. 105, N-1-Dimethyl-6-[(2-methylindolizin-3-yl)carbonyl]-4-oxo-1,4-dihydroquinoline-3-carboxamide]?
A: Percentage inhibition of angiogenesis (%) ([2]; 3 nM): 25%; Percentage inhibition of angiogenesis (%) ([2]; 30 nM): 105%; Percentage inhibition of angiogenesis (%) ([3]; 30 nM): 14%; Percentage inhibition of angiogenesis (%) ([3]; 300 nM): 123%
